In article PMC13085583 (Cell host & microbe, 2026):
Like-named read-outs stand apart in the source and are kept apart here.

Test system: CbCdnB
Details: 10 mM Tris-HCl pH 7.4, 25 mM KCl, 20 mM MgCl2, 1 mM MnCl2, 37 °C

Sequence of CbCdnB (A0A0L9Y448 1-469): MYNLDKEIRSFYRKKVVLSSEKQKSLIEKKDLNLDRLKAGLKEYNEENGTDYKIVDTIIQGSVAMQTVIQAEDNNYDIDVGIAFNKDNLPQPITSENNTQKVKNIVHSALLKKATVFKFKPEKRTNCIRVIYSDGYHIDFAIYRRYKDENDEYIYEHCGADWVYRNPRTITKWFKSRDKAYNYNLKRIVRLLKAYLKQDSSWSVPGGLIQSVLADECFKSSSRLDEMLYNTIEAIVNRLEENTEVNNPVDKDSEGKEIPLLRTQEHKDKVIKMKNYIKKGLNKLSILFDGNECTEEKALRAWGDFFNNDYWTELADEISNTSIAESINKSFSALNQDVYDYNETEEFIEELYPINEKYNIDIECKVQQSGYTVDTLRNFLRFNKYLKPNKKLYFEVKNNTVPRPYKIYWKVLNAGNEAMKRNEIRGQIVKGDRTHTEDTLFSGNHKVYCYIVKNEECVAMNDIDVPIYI

Compound | ELISA of product 2′,3′-cGAMP (with GTP) | ELISA of product 2′,3′-cGAMP (with ATP)
Nc1ncnc2c1ncn2[C@@H]1O[C@H](COP(=O)(O)OP(=O)(O)OP(=O)(O)O)[C@@H](O)[C@H]1O [ATP] | enzyme reaction products produced when the indicated synthase is incubated with ATP and GTP | –
Nc1nc2c(ncn2[C@@H]2O[C@H](COP(=O)(O)OP(=O)(O)OP(=O)(O)O)[C@@H](O)[C@H]2O)c(=O)[nH]1 [GTP] | – | enzyme reaction products produced when the indicated synthase is incubated with ATP and GTP
